Measured values taken from patent US20230272357A1, “METHODS OF GENOME EDITING INCLUDING CONTROLLED OPENING OF CHROMATIN” (Wisconsin Alumni Research Foundation, priority 2021, published 2023).
Entries after “also recorded” stand apart in the source; their conditions may differ.

Experiments:
Type in all cases: cell-based, human
edited iPSC clones = assay: G-banded karyotyping of edited iPSC clones; settings: 6.25 ng/mL TSA
Experimental: Karyotyping: Cells cultured for at least 5 passages were grown to 60-80% confluence and shipped for karyotype analysis to WiCell Research Institute, Madison, Wis. G-banded karyotyping was performed using standard cytogenetic protocols. Metaphase preparations were digitally captured with Applied Spectral Imaging software and hardware. For each cell line, 20 GTL-banded metaphases were counted, of which a minimum of 5 were analyzed and karyotyped. Results were reported in accordance with guidelines established by the International System for Cytogenetic Nomenclature 2016.

[1] = tested on: HIST1H2BJ-GFP, AAVS1 (S8, S10), EMX1, VEGFA, TRAC (S2, S3) loci; assay: Deep sequencing (NGS) of edited iPSCs at open and closed chromatin loci
Experimental: Next Generation Sequencing of genomic DNA: DNA was isolated from iPSCs by adding 50 μL of DNA QuickExtract™/well (Epicentre) following treatment by Accutase™ and centrifugation. The DNA extract solution was incubated at 65° C. for 15 min, 68° C. for 15 min, and finally 98° C. for 10 min. Genomic PCR was performed according to the manufacturer's instructions using Q5 Hot Start polymerase (NEB). Sequencing indices were added with a second round of PCR using indexing primers (IDT), followed by a purification using AMPure XP magnetic bead purification kit (Beckman Coulter). Samples were pooled and sequenced on an Illumina® MiniSeq at a run length of 1×150 bp or 2×150 bp according to the manufacturer's instructions. Analysis was performed using CRISPR RGEN.
Multiple gRNA sequences targeting different sites of open (HIST1H2BJ and AAVS1) and closed chromatin (TRAC, VEGFA, EMX1) were selected to investigate if the observed TSA-induced increase in gene-editing efficiency at HIST1H2BJ-GFP locus is specific to the gRNA sequence or the chromatin state of the target locus. To gain a more detailed analysis of gene-edited events in iPSCs, deep sequencing was performed on edited cells obtained after TSA treatment. The genomic DNA was harvested on day 6 after Cas9 RNP delivery. PCR using primers flanking the gRNA target sites was then performed and prepared for next-generation sequencing (NGS) using the Illumina® MiniSeq™ system. […] Corroborating with this observation, we noted an increase in the local chromatin accessibility at the on-target sites upon TSA treatment (Data not shown). […] The highest frequency of indels was found three to four nucleotides upstream from the protospacer adjacent motif (PAM) sequence, consistent with reports of type II CRISPR systems (FIG. 2C,E). Furthermore, edited reads contained higher deletion events (approximately 50-80%) than insertion events (approximately 5-20%). Similar observations were reported in deep sequencing analysis of human cells edited by S. Pyogenes Cas9 (SpyCas9). The percentage of edited reads with Single Nucleotide Polymorphisms (SNPs) decreased upon chromatin decondensation via TSA treatment (FIG. 2F), while the relative distribution of SNPs around the cut site remained similar (data not shown). This is consistent with reports that indicate nucleosomes are enriched in SNPs.

[2] = tested on: on-target and top off-target sites of HIST1H2BJ-GFP, AAVS1 S10, EMX1; assay: Off-target analysis of edited iPSCs (CHANGE-seq/GUIDE-seq sites, rhAmpSeq)
Experimental: Genome-wide, off-target analysis: Genomic DNA from iPSCs was isolated using Gentra® Puregene® Kit (Qiagen) according to the manufacturer's instructions. CHANGE-seq was performed as described in the art. Briefly, purified genomic DNA was tagmented with a custom Tn5-transposome to an average length of 400 bp, followed by gap repair with Kapa HiFi HotStart Uracil+DNA Polymerase (KAPA Biosystems) and Taq DNA ligase (NEB). Gap-repaired tagmented DNA was treated with USER™ enzyme (NEB) and T4 polynucleotide kinase (NEB). Intramolecular circularization of the DNA was performed with T4 DNA ligase (NEB) and residual linear DNA was degraded by a cocktail of exonucleases containing Plasmid-Safe ATP-dependent DNase (Lucigen), Lambda exonuclease (NEB), and Exonuclease I (NEB). In vitro cleavage reactions were performed with 125 ng of exonuclease-treated circularized DNA, 90 nM of SpCas9 protein (NEB), NEB buffer 3.1 (NEB) and 270 nM of sgRNA, in a 50 μL volume. Cleaved products were A-tailed, ligated with a hairpin adaptor (NEB), treated with USER™ enzyme (NEB), and amplified by PCR with barcoded universal primers NEBNext® Multiplex Oligos for Illumina® (NEB), using Kapa HiFi Polymerase (KAPA Biosystems). Libraries were quantified by qPCR (KAPA Biosystems) and sequenced with 151 bp paired-end reads on an Illumina® NextSeq instrument. CHANGE-seq data analyses were performed using open-source CHANGE-seq analysis software.
To determine the indel frequency at CHANGE-seq-identified off-target sites, on and off-target sites for were amplified from iPSC genomic DNA obtained using rhAmpSeg™ system (IDT), and sequencing libraries were generated according to the manufacturer's instructions. Sequencing was then performed with 150-bp paired-end reads on an Illumina® Miniseq instrument. Analysis was performed using CRISPAltRations: IDT rhAmpSeq CRISPR analysis tool.
Highly sensitive genome-wide, off-target analysis for our TSA-based editing strategy was assayed by CHANGE-seq at HIST1H2BJ-GFP site, which yielded a frequency distribution of the potential off-target sites (FIG. 3A,B). Top 12 off-target sites were amplified from genomic DNA using the rhAmp-Seq system (IDT) and subsequently sequenced using the Illumina® MiniSeq™ system. Sequencing data was then analyzed using the CRISPAltRations tool, which allowed for quantitative analysis of observed indel mutations (data not shown). […] Furthermore, the highest normalized on-target edit ratio was obtained for TSA concentration of 6.25 ng/mL, representative of the optimal TSA concentration for generating gene editing iPSCs.

[3] = edited iPSCs obtained after TSA treatment, all loci
[4] = seven loci, change upon TSA treatment
[5] = HIST1H2BJ-GFP, AAVS1 S10, EMX1, with TSA concentration, FIG. 3C-E

CC(/C=C/C(=O)NO)=C\[C@@H](C)C(=O)c1ccc(N(C)C)cc1 [TSA, Trichostatin A]
Karyotype abnormality in one clone (#5) (edited iPSC clones; FIG. 4E, known recurrent duplication in pluripotent stem cell cultures): interstitial duplication in the long (q) arm of chromosome 20 in five of the twenty cells examined | Karyotype of edited iPSC clones (edited iPSC clones; five clones, HIST1H2BJ-GFP locus): no genomic abnormalities in four of the five clones; also recorded: normal karyotype | Deletion events in edited reads [1, 3]: 50-80% | Insertion events in edited reads [1, 3]: 5-20% | % edited reads with insertions [1, 4]: no significant change; also recorded: did not undergo significant change | % edited reads with only SNPs [1, 4]: decreased | % editing efficiency by deep sequencing ([1]; seven open and closed loci, day 6, TSA vs 0 ng/mL): increased | TSA concentration giving highest normalized on-target edit ratio ([2]; AAVS1 S10 and EMX1 loci): 6.25 ng/mL | TSA concentration giving highest normalized on-target edit ratio ([2]; HIST1H2BJ-GFP site): 6.25 ng/mL | TSA concentration giving highest normalized on-target edit ratio ([2]; HIST1H2BJ-GFP, AAVS1 S10, EMX1, FIG. 3C-E): 6.25 ng/mL | Off-target indel % [2, 5]: remains the same | On-target indel % [2, 5]: increases | Indel % at off-target sites ([2]; top 12 off-target sites of HIST1H2BJ-GFP, upon TSA treatment): did not increase | Indel % at off-target sites ([2]; top off-target sites for AAVS1 S10 and EMX1 loci): no significant increase
